System: xenotransplanted primary human tumours
Assay: Zebrafish embryo xenotransplantation of pretreated fragments of resected primary human tumours
Format: in vivo
Details: for Migration <5 / Migration 5 to 20 / Migration >20 / total >5 / total >5, final line, number: number of embryos; for total >5, final line, per cent / total >5, final line, number: whole experiment; for presence of micro-metastases at 3dpl, Migration 5 to 20: number in square brackets
Description: Zebrafish (Danio rerio) (Tuebingen line, AIB strain (Albinos) and Tg (fli1:eGFP) were handled in compliance with local animal care regulations and standard protocols of the Netherlands and Germany. Fish were kept at 28°C in aquaria with day/night light cycles (10 h dark versus 14 h light periods). The developing embryos were kept in an incubator at constant temperatures.
Cells were stained with CM-Dil (red fluorescence) at a 1:1000 dilution according to the manufacturers protocol (Vybrant, Invitrogen). Cells were suspended in 67% DPBS for injection into embryos. 2dpf zebrafish embryos were dechorionated and tranquilized with tricaine (Sigma). An injection needle (15µm diameter) with a manual injector (Eppendorf; Celltram Vario) was used to inject ∼200 cells into the yolk sac of 2dpf zebrafish embryos. On average 80 embryos were injected for each treatment and embryos with detectable cell scatter 2 h after the transfer (and therefore presumably due to the transfer procedure) were excluded from further analysis. Presence of cells was checked after 2 h incubation at 31°C and embryos were subsequently kept at 35°C. We defined metastasis based on the number of fluorescent cells that were detected outside the yolk sac 2 days after the transfer. Presence of 5 or more cells was considered "metastasised" and percentages of metastasised fish in each experiment were counted. The occurence of micro-metastasis is indicated by cell clusters of ≥4 cells presumably originating from cell division. PaTu-S cells and ASPC1 cells were transfected ON with indicated concentrations of miR-10a siRNA in the presence of ICA-Fectin TM442 (Eurogentec, Belgium). Whole cell lysates were prepared 36h post-transfection and 40 µg of total lysates were separated on 7.5% PAA-gels and blotted with anti E-cadherin, α-catenin, β-catenin (all mAbs, Transduction Labs) and actin antibodies (mAb Sigma-Aldrich, Germany).
Human resection specimens were obtained at the Universitätsklinikum Greifswald according to local ethical guidelines and after obtaining informed patient consent. Tumour tissue was cut into small pieces using a scalpel blade. Tissue fragments were then washed with 67% DPBS and stained with 1:500 CM-Dil. Stained tissue fragments of approximal ^1/5 to ½ the size of the yolk sac were transferred with a glass transplantation needle into the yolk. After 2 h at 31 °C the embryos were checked that the yolk had sealed itself and the embryos were incubated at 35°C for the remainder of the experiment.
Small tissue fragments from two well differentiated ductal adenocarcinoma resection specimen of the Pancreas head (2 and 3) were incubated with miR-10a Morpholino or RARα inhibitor and, following staining with carbocyanine dye (CM-Dil), transplanted into zebrafish embryos (Controls: DMSO and control-Morpholino). Formation of micrometastases in the fish was assessed at 3 dpi by analysis of present cell aggregates (including daughter cells) outside the yolk sac. […] Tumour grading and classification was done according to histopathological examination.

Structure (SMILES): CCCCCCCOc1cc2c(cc1/C(C)=C/c1ccc(C(=O)O)cc1)C(C)(C)CCS2(=O)=O [Ro-41-5253, Benzoic acid, 4-(2-(7-(heptyloxy)-3,4-dihydro-4,4-dimethyl-2H-1-benzothiopyran-6-yl)-1-propenyl)-, S,S-dioxide, (E)]
- Migration <5 (Patient 1 (adenocarcinoma of the ampulla vateri, G3), Day 1): 1
- Migration 5 to 20 (Patient 1, Day 1): 2
- Migration >20 (Patient 1, Day 1): 0
- total >5 (Patient 1, Day 1): 2
- Migration 5 to 20 (Patient 1, Day 2): 2
- Migration <5 (Patient 1, Day 2): 0
- Migration >20 (Patient 1, Day 2): 0
- total >5 (Patient 1, Day 2): 2
- Migration 5 to 20 (Patient 1, Day 3): 1
- Migration <5 (Patient 1, Day 3): 0
- Migration >20 (Patient 1, Day 3): 0
- total >5 (Patient 1, Day 3): 2
- total >5, final line, per cent (Patient 1): 3.1%
- total >5, final line, number (Patient 1): 2
- Migration <5 (Patient 2 (well-differentiated adenocarcinoma of the pancreas, G2), Day 1): 1
- Migration 5 to 20 (Patient 2, Day 1): 3
- Migration >20 (Patient 2, Day 1): 0
- total >5 (Patient 2, Day 1): 3
- Migration 5 to 20 (Patient 2, Day 2): 2
- Migration <5 (Patient 2, Day 2): 1
- Migration >20 (Patient 2, Day 2): 0
- total >5 (Patient 2, Day 2): 2
- Migration 5 to 20 (Patient 2, Day 3): 1
- Migration <5 (Patient 2, Day 3): 0
- Migration >20 (Patient 2, Day 3): 0
- total >5 (Patient 2, Day 3): 1
- total >5, final line, per cent (Patient 2): 4.3%
- total >5, final line, number (Patient 2): 3
- Migration <5 (Patient 3 (well-differentiated adenocarcinoma of the pancreas, G2), Day 1): 0
- Migration 5 to 20 (Patient 3, Day 1): 3
- Migration >20 (Patient 3, Day 1): 0
- total >5 (Patient 3, Day 1): 3
- Migration 5 to 20 (Patient 3, Day 2): 3
- Migration <5 (Patient 3, Day 2): 0
- Migration >20 (Patient 3, Day 2): 0
- total >5 (Patient 3, Day 2): 3
- Migration 5 to 20 (Patient 3, Day 3): 3
- Migration <5 (Patient 3, Day 3): 0
- Migration >20 (Patient 3, Day 3): 0
- total >5 (Patient 3, Day 3): 3
- total >5, final line, per cent (Patient 3): 4.5%
- total >5, final line, number (Patient 3): 3
- total >5 [%] (Table 2, Patient 1): 3.1%
- presence of micro-metastases at 3dpl, Migration 5 to 20 (Table 2, Patient 1): 0
- Migration 5 to 20 (Table 2, Patient 1): 2
- Migration <5 (Table 2, Patient 1): 0
- Migration >20 (Table 2, Patient 1): 0
- total >5 [%] (Table 2, Patient 2): 4.3% 4.4x10^-5
- presence of micro-metastases at 3dpl, Migration 5 to 20 (Table 2, Patient 2): 0
- Migration 5 to 20 (Table 2, Patient 2): 3
- Migration <5 (Table 2, Patient 2): 1
- Migration >20 (Table 2, Patient 2): 0
- total >5 [%] (Table 2, Patient 3): 4.5%
- presence of micro-metastases at 3dpl, Migration 5 to 20 (Table 2, Patient 3): 0
- Migration 5 to 20 (Table 2, Patient 3): 3
- Migration <5 (Table 2, Patient 3): 0
- Migration >20 (Table 2, Patient 3): 0
- reduction of invasiveness and metastatic behaviour (compared to the DMSO treated control tissue of the same tumour specimen): > 95%
- metastatic behavior of treated specimen (p< 0.001, student t-test): significant decrease
